The values below come from PMC11350675, “Identifying Cell-Penetrating Peptides for Effectively Delivering Antimicrobial Molecules into Streptococcus suis” (Antibiotics, 2024).

Data set [1] deals with S. suis serotype 2 strain SC070731. It is filed as cell-based, Streptococcus suis. As for the experimental part: The broth microdilution method was employed to determine the MIC values, following a previous study and a recently published protocol with a few modifications. In brief, an overnight S. suis serotype 2 strain SC070731 culture was diluted 100-fold in fresh THB and grown to an OD600nm of 0.6. Subsequently, the bacterial suspension was further diluted 2000-fold in fresh Mueller–Hinton broth (MHB) to a final concentration of approximately 1 × 10^5 CFU/mL. Then, 180 µL of the bacterial solution was transferred into a 96-well plate. Immediately, 20 µL of a 10× peptides, PNAs, or CPP-PNA conjugates working solution was added. As a negative control, an equivalent volume of water was added instead. The plate was then incubated at 37 °C with 5% CO2 for 18 h, and the growth was periodically monitored by measuring the OD595nm every hour using a BioTek ELx800 plate reader. The MIC value was determined as the lowest concentration inhibiting visible growth in the wells (OD595nm < 0.1).

The test system of data set [2] is S. suis serotype 2 strain SC070731 cells. Kind of data set: Cellular uptake of FITC-labeled CPPs by flow cytometry. The class given is cell-based, Streptococcus suis. Particulars: 10 µM FITC-labeled CPP or FITC molecule, 1 h, 37 °C, PBS; flow cytometry, 50,000 events, 488 nm laser. As to the method:
S. suis serotype 2 strain SC070731 was streaked onto THA plates and incubated at 37 °C with 5% CO2 for 12 h. A bacterial colony was picked and inoculated overnight in 2 mL of THB at 37 °C. The overnight culture was then diluted 100-fold in fresh THB and grown to an OD600nm of 0.6 (approximately 3 × 10^8 CFU/mL). The obtained culture was washed twice with PBS and resuspended in PBS. Further, 900 µL of the bacterial solution was transferred into a 2 mL tube. Immediately, 100 µL of a 10× FITC-labeled CPPs working solution was added to a final concentration of 10 µM. Controls were prepared using an equivalent volume of water or a 10× FITC molecule solution. The reaction tubes were incubated for one hour at 37 °C and 10 rpm rotation in the dark. […] The fluorescence emitted by the 640 nm laser was used to analyze the cell membrane stained with Alexa Fluor 633-WGA. In contrast, the fluorescence emitted by the 488 nm laser was used to analyze the distribution of FITC-labeled CPPs in bacterial cells. […]
As mentioned, the bacterial cells were treated with FITC-labeled CPPs and fixed with 4% paraformaldehyde. […] Bacterial cells in suspension were analyzed at a 200–300 events/s flow rate, and 50,000 events were recorded for analysis. […] The mean fluorescence intensity of FITC was analyzed using FlowJo^TM v10 software (BD Biosciences). […]
(In general: In flow cytometry, cells or beads pass a laser one at a time.)

The mark [3] stands for this setting: S. suis serotype 2 strain SC070731, broth microdilution in MHB, approx. 1 × 10^5 CFU/mL, 37 °C, 5% CO2, 18 h, lowest concentration inhibiting visible growth (OD595nm < 0.1).

In brackets after ≈: the same amount, converted by molar mass. Where two headings read alike, the source gives them in different places. Non-standard residues stand in square brackets, D forms with d. Residues, ends and D or L forms follow the SMILES beside them. Ahx = NCCCCCC(=O)O; βAla = NCCC(=O)O Where only a bound is given, the exact number is not on record here.

In data set [1] (18 h), `N=C(N)NCCC[C@H](NC(=O)CCCCCNC(=O)[C@H](CCCNC(=N)N)NC(=O)[C@H](CCCNC(=N)N)NC(=O)CCCCCNC(=O)[C@H](CCCNC(=N)N)NC(=O)[C@H](CCCNC(=N)N)NC(=O)CCCCCNC(=O)[C@H](CCCNC(=N)N)NC(=O)[C@H](CCCNC(=N)N)NC(=O)CCCCCNC(=O)[C@@H](N)CCCNC(=N)N)C(=O)NCCCCCC(=O)NCCC(N)=O` [(RXR)4XB] (H-R[Ahx]RR[Ahx]RR[Ahx]RR[Ahx]R[Ahx][βAla]-NH2) displayed an MIC of 4 µM (≈ 7.61 µg/mL).

In the case of `O=C1OC2(c3ccc(O)cc3Oc3cc(O)ccc32)c2ccc(N=C=S)cc21` [FITC molecule], in data set [2], the “cells clustered in quadrant 4 (FITC-positive), share of total cells” value was found to be 64.80%. In the case of `N=C(N)NCCC[C@H](NC(=O)CN)C(=O)N[C@@H](CCCCN)C(=O)N[C@@H](CCCCN)C(=O)N[C@@H](CCCNC(=N)N)C(=O)N[C@@H](CCCNC(=N)N)C(=O)N[C@@H](CCC(N)=O)C(=O)N[C@@H](CCCNC(=N)N)C(=O)N[C@@H](CCCNC(=N)N)C(=O)N[C@@H](CCCNC(=N)N)C(=O)N[C@@H](Cc1ccc(O)cc1)C(=O)N[C@@H](CCCCN)C(N)=O` [HIV-1 TAT], the MIC in data set [1] (setting [3]) was >128 µM. For the molecule “Free PNA: gyrA-specific antisense peptide nucleic acid, ttgcattatatg, without carrier peptide (TTGCATTATATG; all peptide nucleic acid (PNA); Unconjugated PNA, no carrier peptide)”, the MIC in data set [1] (setting [3]) is listed as >32 µM.
